In assay [1] the target is T1, Histone-arginine methyltransferase CARM1 (Homo sapiens, UniProt Q86X55).
T1 sequence (Q86X55 whole entry): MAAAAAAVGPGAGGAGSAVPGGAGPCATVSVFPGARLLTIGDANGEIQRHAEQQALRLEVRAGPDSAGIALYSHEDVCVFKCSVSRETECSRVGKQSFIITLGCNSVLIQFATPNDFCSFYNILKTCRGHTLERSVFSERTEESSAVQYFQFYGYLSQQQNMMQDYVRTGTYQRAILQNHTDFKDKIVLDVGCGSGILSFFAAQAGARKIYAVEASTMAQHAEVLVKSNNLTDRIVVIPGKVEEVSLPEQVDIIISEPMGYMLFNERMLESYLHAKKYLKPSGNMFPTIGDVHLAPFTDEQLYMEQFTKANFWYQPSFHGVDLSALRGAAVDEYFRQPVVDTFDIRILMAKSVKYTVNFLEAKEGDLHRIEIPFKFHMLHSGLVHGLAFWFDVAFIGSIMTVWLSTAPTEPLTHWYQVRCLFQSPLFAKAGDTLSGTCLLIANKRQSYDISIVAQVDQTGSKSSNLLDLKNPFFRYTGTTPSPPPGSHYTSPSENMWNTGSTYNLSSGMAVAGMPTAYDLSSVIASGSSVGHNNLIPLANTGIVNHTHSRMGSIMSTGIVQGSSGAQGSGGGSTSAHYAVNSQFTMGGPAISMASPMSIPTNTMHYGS
Put plainly: Selectivity interaction (Western blot assay (PRMT4 dependent BAF155 asymmetric arginine dimethylation)) EUB0000236b CARM1. (In general: Immunoblotting shows a protein as a band on a membrane.)

Assay [2] has as its target Protein arginine N-methyltransferase 5 (Homo sapiens, UniProt O14744). Kind of assay: Selectivity interaction (Western blot assay (PRMT5 dependent SmB symmetric arginine dimethylation)) EUB0000236b PRMT5.
Assay [3] has as its target T2, Protein arginine N-methyltransferase 1 (Homo sapiens, UniProt Q99873). Kind of assay: Selectivity interaction (Western blot assay (PRMT1 dependent H4R3 asymmetric arginine dimethylation)) EUB0000236b PRMT1.
Assay [4] concerns the target T3, Protein arginine N-methyltransferase 6 (Homo sapiens, UniProt Q96LA8). Put plainly: Selectivity interaction (Western blot assay (PRMT6 dependent H4R3 asymmetric arginine dimethylation)) EUB0000236b PRMT6.
Assay [5] concerns the target T4, Protein arginine N-methyltransferase 9 (Homo sapiens, UniProt Q6P2P2).
T4 sequence (Q6P2P2 whole entry): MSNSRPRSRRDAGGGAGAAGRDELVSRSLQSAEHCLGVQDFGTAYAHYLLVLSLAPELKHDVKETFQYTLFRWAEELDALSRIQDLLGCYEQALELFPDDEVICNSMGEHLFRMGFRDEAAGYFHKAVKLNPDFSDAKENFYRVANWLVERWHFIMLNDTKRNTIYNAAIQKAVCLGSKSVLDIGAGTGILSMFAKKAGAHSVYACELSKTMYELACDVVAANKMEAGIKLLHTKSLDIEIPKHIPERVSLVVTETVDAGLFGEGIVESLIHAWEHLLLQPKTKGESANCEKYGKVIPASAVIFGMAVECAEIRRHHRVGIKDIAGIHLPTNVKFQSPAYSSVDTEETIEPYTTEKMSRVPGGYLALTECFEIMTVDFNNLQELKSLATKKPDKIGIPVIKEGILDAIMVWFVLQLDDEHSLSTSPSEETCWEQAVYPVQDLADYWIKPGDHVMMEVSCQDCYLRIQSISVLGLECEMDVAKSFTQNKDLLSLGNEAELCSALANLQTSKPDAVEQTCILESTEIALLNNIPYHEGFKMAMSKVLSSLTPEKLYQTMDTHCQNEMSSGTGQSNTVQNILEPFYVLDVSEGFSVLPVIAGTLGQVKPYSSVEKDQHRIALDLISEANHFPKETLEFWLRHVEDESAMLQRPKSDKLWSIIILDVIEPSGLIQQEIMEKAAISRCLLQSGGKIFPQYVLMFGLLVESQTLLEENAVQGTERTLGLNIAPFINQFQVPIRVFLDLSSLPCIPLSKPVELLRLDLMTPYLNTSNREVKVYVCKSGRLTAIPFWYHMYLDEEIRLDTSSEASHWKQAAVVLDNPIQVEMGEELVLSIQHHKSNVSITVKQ
Put plainly: Selectivity interaction (Western blot assay (PRMT9 dependent SAP145 […] arginine dimethylation)) EUB0000236b PRMT9.

Assay [6] concerns the target Histone-lysine N-methyltransferase, H3 lysine-79 specific (Homo sapiens, UniProt Q8TEK3). Kind of assay: Selectivity interaction (Western blot assay (DOT1L dependent H3K79 lysine dimethylation) ) EUB0000236b DOT1L.
Assay [7] has as its target T2, Protein arginine N-methyltransferase 1. Kind of assay: Selectivity interaction (Scintillation proximity assay) EUB0000261b PRMT1. (In general: Scintillation proximity formats need no separation of bound from free tracer.)
The target in assay [8] is Protein arginine N-methyltransferase 3 (Homo sapiens, UniProt O60678). Put plainly: Selectivity interaction (Scintillation proximity assay) EUB0000261b PRMT3.
The target of assay [9] is T1, Histone-arginine methyltransferase CARM1. Put plainly: Selectivity interaction (Scintillation proximity assay) EUB0000261b CARM1.
Assay [10] addresses T3, Protein arginine N-methyltransferase 6. Put plainly: Selectivity interaction (Scintillation proximity assay) EUB0000261b PRMT6.
Assay [11] deals with Protein arginine N-methyltransferase 8 (Homo sapiens, UniProt Q9NR22). Put plainly: Selectivity interaction (Scintillation proximity assay) EUB0000261b PRMT8.

The structures appear in SMILES notation. pEC50, pIC50: −log10 of the molar value. A value given as a limit tells only on which side of the number the result lay.

T2 sequence (Q99873 whole entry): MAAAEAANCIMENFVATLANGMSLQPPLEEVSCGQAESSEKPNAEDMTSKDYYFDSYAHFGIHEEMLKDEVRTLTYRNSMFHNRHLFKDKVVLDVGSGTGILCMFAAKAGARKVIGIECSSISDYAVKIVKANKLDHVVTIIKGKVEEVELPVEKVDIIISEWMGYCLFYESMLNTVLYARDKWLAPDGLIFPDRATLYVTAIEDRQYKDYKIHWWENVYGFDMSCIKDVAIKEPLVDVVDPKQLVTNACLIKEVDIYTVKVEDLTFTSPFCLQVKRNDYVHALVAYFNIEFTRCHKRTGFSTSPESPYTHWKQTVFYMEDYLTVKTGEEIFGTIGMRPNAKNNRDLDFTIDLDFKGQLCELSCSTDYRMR
T3 sequence (Q96LA8 whole entry): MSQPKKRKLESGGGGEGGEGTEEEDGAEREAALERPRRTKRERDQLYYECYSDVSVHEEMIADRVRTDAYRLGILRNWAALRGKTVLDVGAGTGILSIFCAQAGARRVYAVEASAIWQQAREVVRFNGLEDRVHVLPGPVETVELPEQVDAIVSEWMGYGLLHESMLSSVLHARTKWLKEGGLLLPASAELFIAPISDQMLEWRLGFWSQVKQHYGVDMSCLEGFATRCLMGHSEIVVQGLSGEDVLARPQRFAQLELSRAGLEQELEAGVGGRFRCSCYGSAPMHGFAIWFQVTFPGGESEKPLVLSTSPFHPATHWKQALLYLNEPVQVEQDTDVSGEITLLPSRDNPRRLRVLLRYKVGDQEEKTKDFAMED
Chain of Protein arginine N-methyltransferase 5 (O14744 whole entry): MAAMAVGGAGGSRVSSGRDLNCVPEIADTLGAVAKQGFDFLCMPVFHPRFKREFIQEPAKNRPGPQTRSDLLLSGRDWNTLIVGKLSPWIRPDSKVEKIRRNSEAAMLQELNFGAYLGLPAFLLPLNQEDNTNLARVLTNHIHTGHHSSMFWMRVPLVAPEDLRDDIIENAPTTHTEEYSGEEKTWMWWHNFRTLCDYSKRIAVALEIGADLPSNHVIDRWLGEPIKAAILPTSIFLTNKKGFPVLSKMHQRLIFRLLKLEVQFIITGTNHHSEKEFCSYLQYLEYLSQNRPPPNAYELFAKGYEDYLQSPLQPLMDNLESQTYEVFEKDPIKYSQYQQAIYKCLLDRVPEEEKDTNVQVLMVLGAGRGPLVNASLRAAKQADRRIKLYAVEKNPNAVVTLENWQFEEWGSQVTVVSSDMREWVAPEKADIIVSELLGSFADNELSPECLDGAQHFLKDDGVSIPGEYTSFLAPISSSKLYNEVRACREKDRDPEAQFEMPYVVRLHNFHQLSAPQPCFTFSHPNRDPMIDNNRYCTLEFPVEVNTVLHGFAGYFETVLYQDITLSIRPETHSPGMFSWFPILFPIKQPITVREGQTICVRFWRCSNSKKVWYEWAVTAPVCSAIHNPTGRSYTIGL
Chain of Histone-lysine N-methyltransferase, H3 lysine-79 specific (Q8TEK3 whole entry): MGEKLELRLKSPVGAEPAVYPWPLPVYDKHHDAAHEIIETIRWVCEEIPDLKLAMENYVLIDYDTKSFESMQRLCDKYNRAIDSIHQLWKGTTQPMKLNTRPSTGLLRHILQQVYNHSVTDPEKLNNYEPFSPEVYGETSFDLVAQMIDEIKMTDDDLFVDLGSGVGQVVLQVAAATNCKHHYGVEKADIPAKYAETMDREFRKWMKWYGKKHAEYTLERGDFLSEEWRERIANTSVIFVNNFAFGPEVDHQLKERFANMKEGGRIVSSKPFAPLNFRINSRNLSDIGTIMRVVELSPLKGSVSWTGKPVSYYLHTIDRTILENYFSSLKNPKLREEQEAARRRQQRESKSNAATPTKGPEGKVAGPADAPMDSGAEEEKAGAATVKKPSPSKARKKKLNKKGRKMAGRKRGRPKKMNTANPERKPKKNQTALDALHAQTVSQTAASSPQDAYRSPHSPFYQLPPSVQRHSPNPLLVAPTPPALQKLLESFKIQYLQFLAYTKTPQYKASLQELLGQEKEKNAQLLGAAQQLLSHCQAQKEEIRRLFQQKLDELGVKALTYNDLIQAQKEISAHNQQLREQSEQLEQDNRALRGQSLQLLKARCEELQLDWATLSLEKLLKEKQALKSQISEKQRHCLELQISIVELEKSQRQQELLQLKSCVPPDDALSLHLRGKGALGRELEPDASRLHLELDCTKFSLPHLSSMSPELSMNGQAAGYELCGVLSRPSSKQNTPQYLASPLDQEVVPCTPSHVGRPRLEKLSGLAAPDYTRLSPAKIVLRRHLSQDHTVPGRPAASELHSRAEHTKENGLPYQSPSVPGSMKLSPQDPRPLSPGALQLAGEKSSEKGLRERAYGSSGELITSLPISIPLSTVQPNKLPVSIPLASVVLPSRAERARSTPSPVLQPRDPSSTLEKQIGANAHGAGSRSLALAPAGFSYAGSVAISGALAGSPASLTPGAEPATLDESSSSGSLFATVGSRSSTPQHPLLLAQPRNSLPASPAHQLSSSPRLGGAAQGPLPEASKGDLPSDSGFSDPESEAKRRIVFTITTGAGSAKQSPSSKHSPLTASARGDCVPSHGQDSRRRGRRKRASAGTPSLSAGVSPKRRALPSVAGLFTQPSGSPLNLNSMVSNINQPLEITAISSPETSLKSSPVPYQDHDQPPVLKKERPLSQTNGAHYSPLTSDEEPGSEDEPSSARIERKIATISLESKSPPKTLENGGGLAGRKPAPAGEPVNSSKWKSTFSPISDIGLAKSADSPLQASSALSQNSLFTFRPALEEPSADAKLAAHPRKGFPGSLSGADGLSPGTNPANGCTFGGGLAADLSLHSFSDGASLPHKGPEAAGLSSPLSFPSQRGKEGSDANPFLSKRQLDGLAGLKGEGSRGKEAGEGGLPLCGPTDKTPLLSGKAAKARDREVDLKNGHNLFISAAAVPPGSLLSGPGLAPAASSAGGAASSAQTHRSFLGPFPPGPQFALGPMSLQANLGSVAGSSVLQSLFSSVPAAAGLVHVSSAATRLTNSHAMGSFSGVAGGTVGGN
Chain of Protein arginine N-methyltransferase 3 (O60678 whole entry): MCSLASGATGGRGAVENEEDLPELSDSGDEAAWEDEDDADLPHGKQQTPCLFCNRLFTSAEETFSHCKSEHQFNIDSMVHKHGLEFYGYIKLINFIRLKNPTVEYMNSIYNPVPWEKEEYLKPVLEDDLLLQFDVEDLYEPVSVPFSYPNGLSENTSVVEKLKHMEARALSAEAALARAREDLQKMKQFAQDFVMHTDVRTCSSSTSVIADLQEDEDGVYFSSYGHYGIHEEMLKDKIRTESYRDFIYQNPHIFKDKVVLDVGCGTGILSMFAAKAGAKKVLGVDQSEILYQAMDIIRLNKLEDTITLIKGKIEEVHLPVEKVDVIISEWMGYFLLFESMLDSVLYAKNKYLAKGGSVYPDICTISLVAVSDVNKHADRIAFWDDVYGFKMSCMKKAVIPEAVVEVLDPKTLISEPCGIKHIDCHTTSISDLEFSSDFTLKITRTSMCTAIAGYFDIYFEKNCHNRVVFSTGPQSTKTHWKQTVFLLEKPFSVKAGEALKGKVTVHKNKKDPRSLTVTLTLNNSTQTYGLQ
Chain of Protein arginine N-methyltransferase 8 (Q9NR22 whole entry): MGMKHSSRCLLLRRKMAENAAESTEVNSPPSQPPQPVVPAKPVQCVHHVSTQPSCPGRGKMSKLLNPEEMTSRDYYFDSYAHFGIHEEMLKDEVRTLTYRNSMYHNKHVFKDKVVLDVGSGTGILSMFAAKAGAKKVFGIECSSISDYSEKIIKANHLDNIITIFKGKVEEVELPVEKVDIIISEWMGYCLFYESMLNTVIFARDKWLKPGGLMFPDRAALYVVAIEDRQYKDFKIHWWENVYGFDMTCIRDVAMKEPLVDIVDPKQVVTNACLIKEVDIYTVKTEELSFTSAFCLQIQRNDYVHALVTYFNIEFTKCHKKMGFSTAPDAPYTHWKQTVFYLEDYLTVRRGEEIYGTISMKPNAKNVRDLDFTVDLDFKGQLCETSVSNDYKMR

As to `CC1=C(C)C(=O)C(C(C)(C)CC(=O)N(CCCCSC[C@H]2O[C@@H](n3cnc4c(N)ncnc43)[C@@H]3OC(C)(C)O[C@@H]32)Cc2cccc(-c3ccc(Cl)cc3)c2)=C(C)C1=O`, the negative logarithm of the EC50 (pEC50) in assay [1], in assay [2], in [3], in assay [4], in [5] and in assay [6] was under 8.30 in each case.
As for `CC(C)Oc1ccc(-c2c[nH]cc2CN(C)CCO)cc1`, the pIC50 in [7], in [8], in assay [9], in [10] and in assay [11] was under 4.70 throughout.

Broadly, the pEC50 is the negative decadic logarithm of the EC50, by convention in mol/L. Read a low pEC50 as a high EC50. What is called pIC50 is −log10 of the IC50, conventionally taken in molar units. High values mean a low IC50, low ones a high IC50.

The values are drawn from ChEMBL document CHEMBL5465560, “Selectivity Literature for EUbOPEN Chemogenomic Library” (2024).
